Values of other authors, collected in US5530141A, “2,4-diaryl-1,3-dithiolanes; 2,4-diaryl-1,3-dioxolanes; 2,4-diaryl-1,3-oxathiolanes; and 2,5-diaryl-1,3-oxathiolanes for the treatment of disorders mediated by platelet activating factor or products of 5-lipoxygenase” (Center for Innovative Technology, priority 1992, dated 1996).

Tests used:
[1] = cited from earlier work
PAF receptor sites = conditions: cited from earlier work
5-lipoxygenase = conditions: cited from earlier work
[2] = system: PAF-induced rat cutaneous vascular permeability; conditions: cited from earlier work

In the case of “1-O-alkyl-2-acetyl-sn-glycerol-3-phosphorylcholine [PAF]”, the plasma half life [1] is listed as 2 to 4 min.

In the case of COc1cc([C@H]2CC[C@H](c3cc(OC)c(OC)c(OC)c3)O2)cc(OC)c1OC (relative stereo) [L-652,731, trans-2,5-bis-(3,4,5-trimethoxyphenyl) tetrahydrofuran], the “inhibits the binding of tritiated PAF to PAF receptor sites” value (PAF receptor sites; Hwang et al. 1985) is given as “inhibits the binding of tritiated PAF to PAF receptor sites”, the “potency of trans-L-652,731 relative to cis-L-652,731” value (PAF receptor sites; more potent than cis-L-652,731) is given as “approximately 1000 times” and the “effect on the enzyme 5-lipoxygenase” value (5-lipoxygenase) is given as “no effect on the enzyme 5-lipoxygenase”. For the same compound, the “inhibition of PAF-induced rat cutaneous vascular permeability” value ([2]; dosage of 30 mg/kg body weight, rat) was “inhibit PAF-induced rat cutaneous vascular permeability” and the oral activity ([2]; oral) was “orally active”.
